According to ChEMBL document CHEMBL1201862, “PubChem BioAssay data set” (2004):
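Values below derive from 48-hour exposures of cells grown in 96-well plates, with endpoints linearly interpolated between the two concentrations bracketing the appropriate inhibition level. At the GI50, growth is halved.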 The source made the active and inactive calls. Cut-off read from the data, not from the text of the source: active = GI50 up to about 1.1 µM and inactive = higher.

Experiments:
Experiment in all cases: growth of human tumour cells (NCI), 48 h
SK-OV-3 = test system: SK-OV-3
RPMI-8226 = test system: RPMI-8226
HCT-15 = test system: HCT-15
IGROV-1 = test system: IGROV-1
U-251 = test system: U-251
UACC-62 = test system: UACC-62
OVCAR-8 = test system: OVCAR-8
SK-MEL-5 = test system: SK-MEL-5
K562 = test system: K562
HT-29 = test system: HT-29
SF-295 = test system: SF-295
A498 = test system: A498
SN12C = test system: SN12C
UACC-257 = test system: UACC-257
HOP-62 = test system: HOP-62
Malme-3M = test system: Malme-3M
SR = test system: SR

SMILES	GI50 (SK-OV-3)	GI50 (RPMI-8226)	GI50 (HCT-15) [µM]	GI50 (IGROV-1)	GI50 (U-251)	GI50 (UACC-62)	GI50 (OVCAR-8)	GI50 (SK-MEL-5)	GI50 (K562)	GI50 (HT-29)	GI50 (SF-295)	GI50 (A498)	GI50 (SN12C)	GI50 (UACC-257)	GI50 (HOP-62)	GI50 (Malme-3M)	GI50 (SR)
CC(C(=O)c1ccc(O)cc1)C1(O)C(=O)Nc2c(Cl)cc(Cl)cc21 (centres undefined)	> 100 µM (inactive)	25.6 µM (inactive)	71.6	> 100 µM (inactive)	> 78 µM (inactive)	14 µM (inactive)	46.3 µM (inactive)	17.1 µM (inactive)	2.56 µM (inactive)	> 73.8 µM (inactive)	45.4 µM (inactive)	> 49.1 µM (inactive)	44.9 µM (inactive)	17.5 µM (inactive)	> 100 µM (inactive)	> 100 µM (inactive)	
COC(=O)C(=C\Sc1ccccc1)/C=C/C(=O)OC(C)(C)C	24 µM (inactive)	3.06 µM (inactive)	6.67	13.1 µM (inactive)	14.5 µM (inactive)	15.3 µM (inactive)	15.3 µM (inactive)	15 µM (inactive)	3.01 µM (inactive)	16.5 µM (inactive)	17.4 µM (inactive)			13.5 µM (inactive)	19.5 µM (inactive)	15.9 µM (inactive)	2.87 µM (inactive)
COc1cc(CNc2cnc3cc(N)ccc3n2)cc(OC)c1OC	20.7 µM (inactive)		23	39.3 µM (inactive)	29.2 µM (inactive)	12.7 µM (inactive)	37.4 µM (inactive)	14.9 µM (inactive)	5.53 µM (inactive)	16.9 µM (inactive)	17.3 µM (inactive)	26.5 µM (inactive)	54.5 µM (inactive)	> 100 µM (inactive)	51.4 µM (inactive)	52.5 µM (inactive)	5.65 µM (inactive)
COc1ccc2nc3c(C(=O)NCCN(C)C)cccc3nc2c1	9.04 µM (inactive)		3.93	5.61 µM (inactive)	5 µM (inactive)	5.55 µM (inactive)	5.16 µM (inactive)	4.31 µM (inactive)	5 µM (inactive)	4.17 µM (inactive)	6.41 µM (inactive)	1.84 µM (inactive)	3.41 µM (inactive)	3.91 µM (inactive)	7.23 µM (inactive)		
CCOC(=O)CN.CCOC(=O)Nc1ccc(S(=O)(=O)OC)cc1.CCOC(=O)Nc1ccc(S(=O)(=O)OC)cc1	> 50 µM (inactive)	> 50 µM (inactive)	> 50	> 50 µM (inactive)	9.25 µM (inactive)	> 50 µM (inactive)	> 50 µM (inactive)	> 50 µM (inactive)	> 50 µM (inactive)	> 50 µM (inactive)	> 50 µM (inactive)	> 50 µM (inactive)	> 50 µM (inactive)	> 50 µM (inactive)	> 50 µM (inactive)	> 50 µM (inactive)	
C#CCOCn1cnc2c(Sc3c([N+](=O)[O-])ncn3C)ncnc21	> 100 µM (inactive)	> 100 µM (inactive)	> 100	> 100 µM (inactive)	> 100 µM (inactive)	> 100 µM (inactive)	> 100 µM (inactive)	> 100 µM (inactive)	> 100 µM (inactive)	> 100 µM (inactive)	> 100 µM (inactive)	> 100 µM (inactive)	> 100 µM (inactive)	> 100 µM (inactive)	> 100 µM (inactive)	> 100 µM (inactive)	
Cc1ccc(O)c(C(=O)CCCC(=O)c2cc(C)ccc2O)c1	> 100 µM (inactive)	> 100 µM (inactive)	45.8	> 100 µM (inactive)	52.4 µM (inactive)	> 100 µM (inactive)	> 100 µM (inactive)	> 100 µM (inactive)	35 µM (inactive)	> 100 µM (inactive)	> 100 µM (inactive)	> 100 µM (inactive)	> 100 µM (inactive)	> 100 µM (inactive)	> 100 µM (inactive)	> 100 µM (inactive)	
